# Patent US6586206B1, “Methods for making recombinant proteins using apoptosis inhibitors” (priority 1999, dated 2003)
# Residues, ends and D or L forms follow the SMILES beside them. *: point of attachment. Cbz = O=C(OCc1ccccc1)*; CH2F = FC*
# How the values were obtained:
# [1] = test system: serum-free culture of CHO cells; settings: Goswami et al. 1999; cited from earlier work
# CHO (dhfr+) cells [2] = assay: viability/apoptosis of CHO culture in 60 mm dishes with z-VAD-fmk (Trypan Blue exclusion, annexin/PI); assay type: cell-based, Chinese hamster
# Experimental: (§1) FIGS. 9-10 show assay results of CHO cells seeded in 60 mm dishes and exposed to caspase inhibitor, z-VAD-fmk (added to the cell culture at 100 micromolar concentration, 48 hours after seeding). The z-VAD-fmk inhibitor was added to the culture every 24 hours thereafter. Samples were taken every day and analyzed for caspase-3 activity (FIG. 9) and the % viable cells (FIG. 10).
# (§2) CHO (dhfr+) cells grown in suspension were seeded at 1 million cells/ml in 60 mm tissue culture dishes. The cell culture media was a serum-free DMEM/Ham F-12 based medium containing recombinant human insulin and trace elements. Viability of the culture on day 0 was 96%. Two plates were analyzed each day for viability by Trypan Blue exclusion and by annexin/PI binding (Clontech) and for viable cell density. The experiment was carried out for 10 days. A chemical inhibitor of caspases, z-VAD-fmk (Enzyme Systems Products) was dissolved in DMSO to make a 100 mM (1000×) stock and 4 ul was added to a 60 mm dish containing 4 ml of culture. The inhibitor was added 48 hours after the start of the experiment (prior to the onset of apoptosis) and a new aliquot of the z-VAD-fmk inhibitor was added every 24 hours. Controls were cultures without any addition and cultures with the addition of DMSO only.
# caspase-3 = caspase-3 activity in CHO culture treated with z-VAD-fmk; assay type: cell-based, Chinese hamster; settings: z-VAD-fmk added to the culture at 100 uM, from 48 hours, every 24 hours
# Experimental: as §1, §2
# different cell lines = settings: under cell-culture conditions; other investigators; cited from earlier work
# NSO myeloma cells = settings: overexpression in NSO myeloma cells; Murray et al. 1996; cited from earlier work
# CHO (dhfr+) cells [3] = assay: effect of p35 expression on viability in 2 liter bioreactors; assay type: cell-based, Chinese hamster; settings: p35 expressed in CHO cells vs cpc vector control, 2 liter bioreactor
molecule,measurement,setting,value
COC(=O)C[C@H](NC(=O)[C@H](C)NC(=O)[C@@H](NC(=O)OCc1ccccc1)C(C)C)C(=O)CF [z-VAD-fmk] (Cbz-Val-Ala-Asp(OMe)-CH2F),life of the culture,[1],unable to substantially extend the life
same,apoptosis in cell cultures,CHO (dhfr+) cells [2]; added at a concentration of about 100 micromolar,can inhibit apoptosis
same,cell viability,"CHO (dhfr+) cells [2]; z-VAD-fmk added to the culture at 100 uM, from 48 hours, every 24 hours",prolongation of cell viability
same,caspase-3 activity,caspase-3,inhibition of caspase-3 activity
bcl-2: anti-apoptotic gene overexpressed in cultured cells,prevention of cell death,different cell lines,can be effective in preventing different cell lines from death
same,decline phase characteristics of the cultured cells,NSO myeloma cells,failed to affect the decline phase characteristics
"baculovirus p35: apoptosis inhibitor, baculovirus p35, expressed in CHO cells from p35/CPC construct (protein, UniProt P08160 1-299, looked up) Early 35 kDa protein: MCVIFPVEIDVSQTIIRDCQVDKQTRELVYINKIMNTQLTKPVLMMFNISGPIRSVTRKNNNLRDRIKSKVDEQFDQLERDYSDQMDGFHDSIKYFKDEHYSVSCQNGSVLKSKFAKILKSHDYTDKKSIEAYEKYCLPKLVDERNDYYVAVCVLKPGFENGSNQVLSFEYNPIGNKVIVPFAHEINDTGLYEYDVVAYVDSVQFDGEQFEEFVQSLILPSSFKNSEKVLYYNEASKNKSMIYKALEFTTESSWGKSEKYNWKIFCNGFIYDKKSKVLYVKLHNVTSALNKNVILNTIK",viability in the bioreactor,CHO (dhfr+) cells [3],prolongation of viability
